Test results as given in patent publication US5089623A, “Certain imidate insecticides” (Imperial Chemical Industries Plc, priority 1990, dated 1992).

Columns and labels:
Assay type in all cases: in vivo
[1] = test system: Housefly [Musca domestica]; assay: Housefly insecticidal test (HF); settings: per 25 female houseflies, 48 hours
[2] = test system: Tobacco Budworm [Heliothis virescens (Fabricius)]; assay: Tobacco budworm contact test (TBW-C); settings: second-instar larvae, 5 days, percent in solution
Summary of the method: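 Cotton cotyledons dipped 2–3 s in compound in 50:50 acetone–water, dried, then infested with 5 second-instar larvae and held 5 days at high humidity before scoring mortality.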

[3] = test system: Tobacco Budworm [Heliothis virescens (Fabricius)] eggs; assay: Tobacco budworm egg test (TBW-E); settings: percent in solution
[4] = test system: Beet Armyworm (Spodoptera exigua); assay: Beet armyworm test (BAW); settings: second-instar larvae, five days, percent in solution
Summary of the method: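 Sugar beet leaves were dipped 2-3 s in compound diluted in 50-50 acetone-water, dried, then infested with five second-instar larvae in humid dishes. Mortality was scored after five days at concentrations from 0.1% downward. LC50 was taken from dosage-mortality curves as percent compound in solution.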

[5] = test system: Cabbage Looper [Trichoplusia ni (Hubner)]; assay: Cabbage looper test (CL); settings: second-instar larvae, 3-5 days, percent in solution
[6] = test system: Aster Leafhopper [Macrosteles fascifrens (Stal)]; assay: Aster leafhopper test (LH); settings: adults/nymphs, 48 hours, percent in solution
[7] = test system: Rice water weevil [Lissorhoptrus oryzophilus (Kuschel)]; assay: Rice water weevil test (RWW); settings: per weevil, topical, female adults, 48 hours
Method: The compounds in Tables 1 and 2 above were tested for insecticidal activity using the following testing procedures. LC50 values, based on the results of these tests and calculated according to dosage-mortality curves, are expressed in Table 3.
Rice water weevil [Lissorhoptrus oryzophilus (Kuschel)]
Test compounds were diluted in acetone. Droplets (1 ul) of test solutions were applied to the ventral abdomens of ten female adult weevils. The treated weevils were placed in containers with wet cotton balls and rice foliage. The containers were covered and kept at a temperature of about 25° C. Mortality was recorded after 48 hours. […] The LC50 values are expressed below in Table 3 under the heading "RWW" in terms of μg of test compound per weevil.

[8] = test system: Maize weevil [Sitophilus Zeamais (Motschulsky)]; assay: Maize weevil test (MW); settings: adult weevils, treated corn seeds, 48 hours, percent in solution
Summary of the method: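 Adult weevils (10) were placed with four corn seeds that had been dipped 2-3 s in compound dissolved in 50:50 acetone:water, then dried, and held at about 25° C. Mortality was scored at 48 h. LC50 was taken from dosage-mortality curves and expressed as percent compound in solution, from a 0.01% top concentration.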

Structure (SMILES)	LC50 HF [1] [µg]	LC50 TBW C [2] [%]	LC50 TBW E [3] [%]	LC50 BAW [4] [%]	LC50 CL [5] [%]	LC50 LH [6] [%]	LC50 RWW [7] [µg]	LC50 MW [8] [%]
CC(C)C(=Nc1cc(F)cc(F)c1)OCc1cccc(Oc2ccccc2)c1 [Compound 55]	> 100	0.004	0.06	0.006	0.0017	0.0005	> 2.5	–
FC(F)(F)c1cccc(N=C(OCc2cccc(Oc3ccccc3)c2)C(Cl)Cl)c1 [Compound 66]	9.7	–	0.06	0.0065	< 0.0025	0.001	> 2.5	–
CC(C)C(=Nc1ccc2c(c1)OCO2)OCc1ccc(F)c(Oc2ccccc2)c1 [Compound 181]	25	0.001	0.01	0.001	0.0005	–	> 2.5	0.005
CC(C)C(=Nc1ccc(F)c(Cl)c1)OCc1cccc(Oc2ccc(F)cc2F)c1 [Compound 191]	29	–	0.04	–	0.00023	> 0.05	> 2.5	0.004
CC(C)C(=Nc1c(F)c(F)c(F)c(F)c1F)OCc1cccc(Oc2ccc(F)cc2)c1 [Compound 198]	52	–	> 0.1	–	0.0005	0.05	> 2.5	0.003
CC(C)C(=Nc1ccc2c(c1)OC(F)(F)O2)OCc1cccc(Oc2ccc(F)cc2)c1 [Compound 244]	14	0.00025	> 0.1	0.002	0.00004	–	0.09	0.0025
CC(C)C(=Nc1ccc2c(c1)OC(F)(F)O2)OCc1cccc(Oc2ccccc2)c1 [Compound 245]	20	0.0015	0.016	0.001	0.0035	–	> 2.5	0.006
CC(C)C(=Nc1ccc(F)c(I)c1)OCc1ccc(F)c(Oc2ccc(F)cc2)c1 [Compound 281]	5	0.00025	0.006	0.0027	0.00002	–	> 2.5	0.005
CC(C)C(=Nc1ccc2c(c1)OC(F)(F)O2)OCc1ccc(F)c(Oc2ccccc2)c1 [Compound 285]	36	0.00017	0.005	0.0006	0.000075	–	0.13	0.005
CC(C)C(=Nc1ccc(Cl)c(Cl)c1)OCc1ccc(F)c(Oc2ccc(F)cc2)c1 [Compound 289]	10	–	0.006	–	0.00007	0.0003	0.082	> 0.01
CC(C)C(=Nc1ccc(F)c(F)c1)OCc1ccc(F)c(Oc2ccc(Cl)cc2)c1 [Compound 295]	7.8	0.0005	0.01	–	0.00004	0.0001	> 2.5	0.0053
CC(C)C(=Nc1ccc(Cl)c(Cl)c1)OCc1ccc(F)c(Oc2ccc(Cl)cc2)c1 [Compound 296]	38	0.00045	0.025	–	0.00025	0.0003	0.14	–
CC(C)C(=Nc1ccc(F)c(Br)c1)OCc1ccc(F)c(Oc2ccc(Cl)cc2)c1 [Compound 298]	13	0.0008	0.015	–	0.0001	0.0001	> 2.5	0.008
CC(C)C(=Nc1ccc(F)c(C(F)(F)F)c1)OCc1ccc(F)c(Oc2ccccc2)c1 [Compound 300]	14	0.001	0.024	–	0.0003	0.00002	0.075	0.01
CC(C)C(=Nc1ccc(C(F)(F)F)cc1)OCc1ccc(F)c(Oc2ccc(Cl)cc2)c1 [Compound 324]	> 100	0.0004	0.025	0.0024	0.00014	–	0.06	–
CC(C)C(=Nc1ccc(F)cc1)OCc1ccc(F)c(Oc2ccc(Cl)cc2)c1 [Compound 325]	5	0.0006	0.037	0.0025	0.00012	–	> 2.5	–
CC(C)C(=Nc1ccc(F)c(Cl)c1F)OCc1ccc(F)c(Oc2ccc(F)cc2)c1 [Compound 330]	5	0.00035	0.037	–	0.00012	< 0.05	0.06	0.001
CC(C)C(=Nc1ccc(F)c(Cl)c1F)OCc1cccc(Oc2ccc(Cl)cc2)c1 [Compound 331]	20	0.0004	0.04	0.002	0.0002	–	> 2.5	–
CC(C)C(=Nc1ccc(F)c(F)c1)OCc1ccc(F)c(Oc2ccccc2)c1 [Compound 336]	3.6	0.0005	0.02	0.001	0.00017	–	> 2.5	0.0091
CC(C)C(=Nc1ccc(C(F)(F)F)cc1)OCc1ccc(F)c(Oc2ccccc2)c1 [Compound 337]	21	0.0005	0.008	0.0005	0.0007	–	0.067	0.0053
CC(C)C(=Nc1ccc(OC(F)(F)F)cc1)OCc1ccc(F)c(Oc2ccccc2)c1 [Compound 338]	26	0.00037	0.01	–	0.000065	–	0.044	0.0053
CC(C)C(=Nc1ccc(F)c(Cl)c1F)OCc1ccc(F)c(Oc2ccccc2)c1 [Compound 451]	3.6	0.00025	> 0.1	–	0.0001	0.0002	0.065	0.0051
CC(C)C(=Nc1ccc(F)c(Cl)c1)OCc1cccc(Oc2ccc(F)cc2)n1 [Compound 461]	6	–	0.01	0.0035	0.00008	–	> 2.5	0.0075
